Laboratory results from ChEMBL document CHEMBL1201862, “PubChem BioAssay data set” (2004).
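Interpolation was linear, between the two tested concentrations surrounding the appropriate level; five concentrations were tested over 48 hours in 96-well plates. Abbreviation: GI50, concentration required for 50% inhibition of growth.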 Active and inactive are the calls of the source. Cut-off read from the data, not from the text of the source: active = GI50 up to about 1.1 µM and inactive = higher.

Legend:
Test in all cases: NCI anticancer screen, dose series, 48 h
LOX IMVI = test system: LOX IMVI
NCI-H460 = test system: NCI-H460
786-0 = test system: 786-0
SF-295 = test system: SF-295
PC-3 = test system: PC-3
SK-MEL-5 = test system: SK-MEL-5
HCC 2998 = test system: HCC 2998
NCI-H226 = test system: NCI-H226
SK-OV-3 = test system: SK-OV-3
NCI-H23 = test system: NCI-H23
HCT-15 = test system: HCT-15
ACHN = test system: ACHN
DU-145 = test system: DU-145
UACC-257 = test system: UACC-257
CAKI-1 = test system: CAKI-1
Malme-3M = test system: Malme-3M
OVCAR-4 = test system: OVCAR-4
K562 = test system: K562
MDA-MB-231 = test system: MDA-MB-231
MDA-MB-435 = test system: MDA-MB-435
CCRF-CEM = test system: CCRF-CEM
RPMI-8226 = test system: RPMI-8226
SN12C = test system: SN12C
SNB-19 = test system: SNB-19
TK-10 = test system: TK-10
MDA-N = test system: MDA-N
RXF 393 = test system: RXF 393
EKVX = test system: EKVX
HT-29 = test system: HT-29
OVCAR-8 = test system: OVCAR-8
HL-60 = test system: HL-60
NCI-H522 = test system: NCI-H522
SF-268 = test system: SF-268
UACC-62 = test system: UACC-62
MCF7 = test system: MCF7
HCT-116 = test system: HCT-116
MOLT-4 = test system: MOLT-4
NCI/ADR-RES = test system: NCI/ADR-RES
SK-MEL-28 = test system: SK-MEL-28
IGROV-1 = test system: IGROV-1
A549 = test system: A549
HOP-62 = test system: HOP-62
SR = test system: SR
T47D = test system: T47D
COLO 205 = test system: COLO 205
SW-620 = test system: SW-620
KM12 = test system: KM12
SF-539 = test system: SF-539
HOP-92 = test system: HOP-92
OVCAR-5 = test system: OVCAR-5
Hs-578T = test system: Hs-578T
OVCAR-3 = test system: OVCAR-3
SK-MEL-2 = test system: SK-MEL-2
SNB-75 = test system: SNB-75
M14 = test system: M14
UO-31 = test system: UO-31
U-251 = test system: U-251
A498 = test system: A498
BT-549 = test system: BT-549

Measured: GI50

Cc1cc(=O)oc2c(CNC(C)C(=O)O)c(O)ccc12 (centres undefined)
> 100 µM: HCT-15
inactive: LOX IMVI > 100 µM | NCI-H460 > 100 µM | 786-0 > 100 µM | SF-295 > 100 µM | PC-3 > 100 µM | SK-MEL-5 > 100 µM | HCC 2998 > 100 µM | NCI-H226 > 100 µM | SK-OV-3 > 100 µM | NCI-H23 > 100 µM | ACHN > 100 µM | DU-145 > 100 µM | UACC-257 > 100 µM | CAKI-1 > 100 µM | Malme-3M > 100 µM | OVCAR-4 > 100 µM | K562 > 100 µM | MDA-MB-231 > 100 µM | MDA-MB-435 > 100 µM | CCRF-CEM > 100 µM | RPMI-8226 > 100 µM | SN12C > 100 µM | SNB-19 > 100 µM | TK-10 95.7 µM | MDA-N > 100 µM | RXF 393 > 100 µM | EKVX > 100 µM | HT-29 > 100 µM | OVCAR-8 > 100 µM | HL-60 > 100 µM | NCI-H522 > 100 µM | SF-268 > 100 µM | UACC-62 > 100 µM | MCF7 > 100 µM | HCT-116 71.4 µM | MOLT-4 > 100 µM | NCI/ADR-RES > 100 µM | SK-MEL-28 > 100 µM | IGROV-1 > 100 µM | A549 > 100 µM | HOP-62 > 100 µM | SR > 100 µM | T47D > 100 µM | COLO 205 > 100 µM | SW-620 > 100 µM | KM12 > 100 µM | SF-539 > 100 µM | HOP-92 65.3 µM | OVCAR-5 > 100 µM | Hs-578T > 100 µM | OVCAR-3 > 100 µM | SK-MEL-2 > 100 µM | SNB-75 > 100 µM | M14 > 100 µM | UO-31 36.9 µM | U-251 > 100 µM

c1ccc(-c2cnc3nc4ccccc4nc3n2)cc1
2.5 µM: HCT-15
inactive: LOX IMVI 3.25 µM | NCI-H460 2.96 µM | 786-0 3.9 µM | SF-295 6.11 µM | SK-MEL-5 3.05 µM | HCC 2998 11.7 µM | NCI-H226 3.23 µM | SK-OV-3 2.87 µM | NCI-H23 3.82 µM | ACHN 1.22 µM | DU-145 3.83 µM | UACC-257 2.25 µM | Malme-3M 2.45 µM | OVCAR-4 1.72 µM | A498 3.33 µM | K562 2.51 µM | MDA-MB-231 2.69 µM | MDA-MB-435 1.58 µM | RPMI-8226 1.32 µM | SN12C 9.08 µM | SNB-19 13.7 µM | TK-10 4.2 µM | EKVX 2.88 µM | BT-549 3.43 µM | HT-29 7.05 µM | OVCAR-8 1.98 µM | HL-60 1.82 µM | NCI-H522 3.5 µM | SF-268 4.29 µM | UACC-62 2.85 µM | MCF7 1.82 µM | HCT-116 2.86 µM | MOLT-4 1.31 µM | NCI/ADR-RES 3.81 µM | SK-MEL-28 14.7 µM | IGROV-1 3.31 µM | A549 10 µM | HOP-62 13.9 µM | T47D 3.85 µM | COLO 205 2.15 µM | SW-620 2.81 µM | KM12 1.22 µM | SF-539 3.25 µM | OVCAR-5 13.6 µM | Hs-578T 3.78 µM | OVCAR-3 1.16 µM | SK-MEL-2 2.88 µM | SNB-75 2.66 µM | M14 6.11 µM | UO-31 4.58 µM | U-251 4.94 µM
active: CAKI-1 0.942 µM | CCRF-CEM 0.301 µM | SR 0.826 µM

O=[N+]([O-])/C=C/COCc1cc2c(cc1Br)OCO2
18 µM: HCT-15
inactive: LOX IMVI 33.8 µM | NCI-H460 29.9 µM | 786-0 13.8 µM | SF-295 36.8 µM | PC-3 13 µM | SK-MEL-5 20.2 µM | HCC 2998 16.7 µM | SK-OV-3 43.1 µM | ACHN 16.4 µM | DU-145 18.9 µM | UACC-257 17.3 µM | CAKI-1 20.6 µM | OVCAR-4 18.6 µM | A498 27.6 µM | K562 58.2 µM | MDA-MB-231 18.9 µM | MDA-MB-435 13.9 µM | CCRF-CEM 1.15 µM | RPMI-8226 39.5 µM | SN12C 18.6 µM | TK-10 17.4 µM | MDA-N 18.2 µM | RXF 393 16.7 µM | EKVX 20.1 µM | HT-29 20.8 µM | OVCAR-8 31.9 µM | NCI-H522 22 µM | SF-268 19.1 µM | UACC-62 16.5 µM | MCF7 17.2 µM | HCT-116 17.6 µM | MOLT-4 48.3 µM | NCI/ADR-RES 21.1 µM | SK-MEL-28 11.6 µM | IGROV-1 29.8 µM | A549 21.7 µM | HOP-62 20.1 µM | SR 23.4 µM | T47D 16.7 µM | COLO 205 23.1 µM | SW-620 16 µM | KM12 19 µM | SF-539 27.9 µM | HOP-92 23.2 µM | OVCAR-5 16.7 µM | Hs-578T 23.6 µM | OVCAR-3 16.4 µM | SNB-75 17.4 µM | M14 16.3 µM | UO-31 17.2 µM | U-251 17 µM
